Target: Ras-related C3 botulinum toxin substrate 1 (Mus musculus, UniProt P63001)
Assay: inhibitors of activated mutant Rac1 GTP binding, dose response, biochemical, multiplex, GST-Rac1 beads, Bodipy-FL-GTP, flow cytometry (AID 1339)

| SMILES | EC50 |
| --- | --- |
| CNC(=S)N/N=C1\C(=O)Nc2ccccc21 [1-methyl-3-[(2-oxoindol-3-yl)amino]thiourea] | 91.6 µM |
| O=C1C([N+](=O)[O-])=Cc2oc3c(c2C1/C=N/Cc1ccccc1)CCCC3 (configuration not stated) [(1Z)-3-nitro-1-[[(phenylmethyl)amino]methylidene]-6,7,8,9-tetrahydrodibenzofuran-2-one] | 5.79 µM |
